Test results taken from patent US4310590A (priority 1979, dated 1982).
In brackets after ≈: the same amount, converted by molar mass.

Tests used:
[1] = system: Piricularia oryzae; assay: whole plant or invertebrate; assay type: in vivo; details: for Disease Control Level, RB: 150 ppm
[2] = system: Puccinia graminis f. sp. tritici; assay: whole plant or invertebrate; assay type: in vivo, Puccinia graminis f. sp. tritici race 15B-2; details: for Disease Control Level, WSR: 150 ppm, wheat seedlings
[3] = system: Phytophthora infestans; assay: whole plant or invertebrate; assay type: in vivo
[4] = system: Helminthosporium teres; assay: whole plant or invertebrate; assay type: in vivo; details: Pyrenophora teres, in Hordeum vulgare, read-out: Disease Control Level, BH
[5] = system: Plasmopora viticola; assay: whole plant or invertebrate; assay type: in vivo; details: for pest or weed control at 300 ppm / pest or weed control at 38 ppm / pest or weed control at 75 ppm: read-out: Disease Control Level, GDM
[6] = system: Botrytis cinerea; assay: whole plant or invertebrate; assay type: in vivo; details: for pest or weed control at 300 ppm / pest or weed control at 38 ppm / pest or weed control at 75 ppm: Botrytis cinerea, read-out: Disease Control Level, BOT; for Disease Control Level, BOT: 150 ppm
[7] = system: Erysiphe polygoni; assay: whole plant or invertebrate; assay type: in vivo; details: read-out: Disease Control Level, BPM
[8] = system: A. niger; assay: Serial Dilution Test (Broth Titer Test), antifungal, A. niger; assay type: cell-based, Aspergillus niger; details: in vitro serial dilution test; for MIC: Aspergillus niger, read-out: SDT, MIC
Protocol: (§1) Antibacterial and antifungal activity were evaluated by the Serial Dilution Test (Broth Titer Test) wherein a series of broths containing varying dilutions of a test compound and an organism are halved starting with 1:1,000. The values shown represent the maximum dilution in parts per million at which the compound under evaluation renders complete control of the organism. Pseudomonas aeruginosa (P), Staphylococcus aureus (S), and Escherichia coli (E) were the bacterial organisms employed in this test, and the fungi employed were Aspergillus niger (A) and Rhizopus stolonifer (R).
(§2) ^a In vitro serial dilution test (SDT), minimum inhibitory
(§3) concentrations (MIC) against E = E. coli, P = Ps. aeruginosa, S =
(§4) Staphylococcus aureus, A = A. niger, and R = Rhizopus stolonifer are give
(§5) in parts per million of a biocide.

[9] = system: E. coli; assay: Serial Dilution Test (Broth Titer Test), antibacterial, E. coli; assay type: cell-based, Escherichia coli; details: for SDT, MIC: in vitro serial dilution test, E = E. coli; for MIC: Escherichia coli, read-out: SDT, MIC
Protocol: as §1, §2, §3, §4, §5

[10] = system: Rhizopus stolonifer; assay: Serial Dilution Test (Broth Titer Test), antifungal, Rhizopus stolonifer; assay type: cell-based; details: in vitro serial dilution test; R = Rhizopus stolonifer
Protocol: as §1, §2, §3, §4, §5

[11] = system: Staphylococcus aureus; assay: Serial Dilution Test (Broth Titer Test), antibacterial, Staphylococcus aureus; assay type: cell-based; details: for SDT, MIC: in vitro serial dilution test, S = Staphylococcus aureus; for MIC: Staphylococcus aureus, read-out: SDT, MIC
Protocol: as §1, §2, §3, §4, §5

[12] = system: Ps. aeruginosa; assay: Serial Dilution Test (Broth Titer Test), antibacterial, Ps. aeruginosa; assay type: cell-based, Pseudomonas aeruginosa; details: for SDT, MIC: in vitro serial dilution test, P = Ps. aeruginosa; for MIC: Pseudomonas aeruginosa, read-out: SDT, MIC
Protocol: as §1, §2, §3, §4, §5

[13] = Pyricularia oryzae, read-out: Disease Control Level, RB
[14] = Puccinia graminis, read-out: Disease Control Level, WSR
[15] = Phytophthora infestans, in Solanum lycopersicum, read-out: Disease Control Level, TLB

Structure (SMILES) | pest or weed control at 300 ppm [2, 14] | pest or weed control at 300 ppm [3, 15] | pest or weed control at 300 ppm [4] | pest or weed control at 300 ppm [5] | pest or weed control at 300 ppm [6] | pest or weed control at 300 ppm [7] | Disease Control Level, RB [1] | pest or weed control at 38 ppm [1, 13] | pest or weed control at 75 ppm [1, 13] | Disease Control Level, BOT [6] | pest or weed control at 38 ppm [6] | pest or weed control at 75 ppm [6] | pest or weed control at 75 ppm [2, 14] | MIC [11] | Disease Control Level, WSR [2] | pest or weed control at 38 ppm [5] | pest or weed control at 75 ppm [5] | Disease Control Level, GDM ([5]; 150 ppm) | further results
O=c1cc(SC(=S)N(Cc2ccccc2)Cc2ccccc2)sn1CCc1ccccc1 [Example 12, 5-(N,N-Dibenzylthiocarbamoyl)thio-2-phenethyl-4-isothiazolin-3-one] | 50% | 50% | 50% | 50% | 50% | 50% |  |  |  |  |  |  |  |  |  |  |  |  | pest or weed control at 300 ppm [1, 13]: 50%
Cc1c(SC(=S)N(C)C)sn(-c2ccc(Cl)cc2Cl)c1=O [Example 10] |  |  |  |  |  |  |  |  |  |  |  |  |  |  |  |  |  |  | SDT, MIC [8]: 500 PPM; SDT, MIC [9]: 500 PPM; SDT, MIC [10]: 250 PPM; SDT, MIC [11]: 500 PPM; SDT, MIC [12]: 500 PPM
Cc1c(SC(=S)N(C)C)sn(-c2ccccc2)c1=O [Example 2, 5-(N,N-Dimethylthiocarbamoyl)thio-4-methyl-2-phenyl-4-isothiazolin-3-one] | 70 to 89% | 50% | 50% | 50% | 90 to 96% | 50% | A/E | 90 to 96% | 90 to 96% | B/C | 70 to 89% | 90 to 96% |  |  |  |  |  |  | MIC [8]: 500 µg/mL (≈ 1610 µM); MIC [9]: 500 µg/mL (≈ 1610 µM); MIC [12]: > 500 µg/mL
Cc1c(SC(=S)N(C)C)sn(CCc2ccccc2)c1=O [Example 7] | 97 to 100% | 50% | 50% | 50% | 50% | 50% | B/E | 90 to 96% | 90 to 96% |  |  |  | 50% | > 500 µg/mL |  |  |  |  | pest or weed control at 38 ppm [2, 14]: 50%; pest or weed control at 150 ppm [2, 14]: 50%
CN(C)C(=S)Sc1sn(CCc2ccccc2)c(=O)c1Cl [Example 3, 4-Chloro-5-(N,N-dimethylthiocarbamoyl)thio-2-phenethyl-4-isothiazolin-3-one] | 70 to 89% | 50% | 50% | 50% | 50% | 50% |  |  |  |  |  |  |  | > 500 µg/mL |  |  |  |  | pest or weed control at 300 ppm [1, 13]: 50%
Cn1sc(SC(=S)N2CCCC2)cc1=O [Example 13, 2-Methyl-5-[N,N-tetramethylenethiocarbamoyl]thio-4-isothiazolin-3-one] | 90 to 96% | 90 to 96% | 50% | 97 to 100% | 97 to 100% | 50% | A/E | 90 to 96% | 90 to 96% | A/E | 70 to 89% | 70 to 89% | 70 to 89% | > 500 µg/mL | C/E | 97 to 100% | 97 to 100% | A/E | pest or weed control at 300 ppm [1, 13]: 90 to 96%; pest or weed control at 38 ppm [2, 14]: 70 to 89%; Disease Control Level, TLB ([3]; 150 ppm, tomato seedlings): A/E; pest or weed control at 38 ppm [3, 15]: 50%; pest or weed control at 75 ppm [3, 15]: 90 to 96%
CN(C)C(=S)Sc1cc(=O)n(C)s1 [Example 5] | 90 to 96% | 50% | 97 to 100% | 90 to 96% | 90 to 96% | 50% | A/E | 97 to 100% | 97 to 100% | A/C | 90 to 96% | 97 to 100% | 50% |  | C/E | 97 to 100% | 97 to 100% | A/A | pest or weed control at 19 ppm [1, 13]: 97 to 100%; MIC [8]: 125 µg/mL (≈ 533 µM); MIC [9]: 500 µg/mL (≈ 2130 µM); pest or weed control at 19 ppm ([4]; 19 ppm): 50%; pest or weed control at 38 ppm [4]: 50%; pest or weed control at 75 ppm [4]: 50%; pest or weed control at 150 ppm [4]: 50%; Disease Control Level, GDM ([5]; 19 ppm): C/E; MIC [12]: > 500 µg/mL
CCCCCCCCn1sc(SC(=S)N(C)C)cc1=O [Example 6] | 97 to 100% |  | 50% | 50% | 50% | 50% |  |  |  |  |  |  |  |  |  |  |  |  | 
CN(C)C(=S)Sc1cc(=O)n(CCc2ccccc2)s1 [Example 4] | 97 to 100% | 50% | 50% | 90 to 96% | 90 to 96% | 50% |  | 50% | 50% | A/C | 90 to 96% | 90 to 96% |  | > 500 µg/mL | E/E | 90 to 96% | 97 to 100% | A/A | pest or weed control at 150 ppm [1, 13]: 97 to 100%
CN(C)C(=S)Sc1cc(=O)n(Cc2ccccc2)s1 [Example 1, 2-Benzyl-5-(N,N-dimethylthiocarbamoyl)thio-4-isothiazolin-3-one] | 90 to 96% | 50% | 97 to 100% | 90 to 96% | 90 to 96% | 50% | A/E | 97 to 100% | 97 to 100% | B/B | 70 to 89% | 70 to 89% | 50% | > 500 µg/mL | C/C | 50 to 69% | 70 to 89% | C/C | pest or weed control at 38 ppm [2, 14]: 50%; pest or weed control at 38 ppm [4]: 50%; pest or weed control at 75 ppm [4]: 50%; pest or weed control at 150 ppm [4]: 50%
Cc1c(SC(=S)N(C)C)sn(-c2ccc(Cl)cc2)c1=O [Example 9] |  |  |  |  |  |  | A/A |  |  | C/C |  |  |  |  |  |  |  | A/E | SDT, MIC [8]: 500 PPM; SDT, MIC [9]: 500 PPM; SDT, MIC [10]: 250 PPM; SDT, MIC [11]: 500 PPM; SDT, MIC [12]: 500 PPM
Cc1c(SC(=S)N(C)C)sn(-c2ccc(Br)cc2)c1=O [Example 8] |  |  |  |  |  |  | A/E |  |  |  |  |  |  |  | C/C |  |  | A/B | SDT, MIC [8]: 500 PPM; SDT, MIC [9]: 500 PPM; SDT, MIC [10]: 250 PPM; SDT, MIC [11]: 500 PPM; SDT, MIC [12]: 500 PPM
N#Cc1cc(=O)n(CCc2ccccc2)s1 [Example 15, 5-Cyano-2-phenethyl-4-isothiazolin-3-one] |  |  |  |  |  |  |  |  |  |  |  |  |  | > 500 µg/mL |  |  |  |  | 
